The assay addresses human Nav1.8 (Homo sapiens, UniProt Q9Y5Y9). The assay can be described thus: SyncroPatch384PE assay (automated patch clamp). In kind it is cell-based. The settings on record: human Nav1.8/b3 CHO cells.
Where [1] appears, read: inactivated state block (P2 measurement), read-out: P2 IC50.
The mark [2] stands for this setting: resting state block (P1 measurement), read-out: P1 IC50.

pIC50: −log10 of the molar value. Counter-ions that a name gives are not always drawn. Like-named read-outs stand apart in the source and are kept apart here.

The term pIC50 denotes the negative decadic logarithm of the IC50, by convention in mol/L.

human Nav1.8, sequence (Q9Y5Y9 whole entry): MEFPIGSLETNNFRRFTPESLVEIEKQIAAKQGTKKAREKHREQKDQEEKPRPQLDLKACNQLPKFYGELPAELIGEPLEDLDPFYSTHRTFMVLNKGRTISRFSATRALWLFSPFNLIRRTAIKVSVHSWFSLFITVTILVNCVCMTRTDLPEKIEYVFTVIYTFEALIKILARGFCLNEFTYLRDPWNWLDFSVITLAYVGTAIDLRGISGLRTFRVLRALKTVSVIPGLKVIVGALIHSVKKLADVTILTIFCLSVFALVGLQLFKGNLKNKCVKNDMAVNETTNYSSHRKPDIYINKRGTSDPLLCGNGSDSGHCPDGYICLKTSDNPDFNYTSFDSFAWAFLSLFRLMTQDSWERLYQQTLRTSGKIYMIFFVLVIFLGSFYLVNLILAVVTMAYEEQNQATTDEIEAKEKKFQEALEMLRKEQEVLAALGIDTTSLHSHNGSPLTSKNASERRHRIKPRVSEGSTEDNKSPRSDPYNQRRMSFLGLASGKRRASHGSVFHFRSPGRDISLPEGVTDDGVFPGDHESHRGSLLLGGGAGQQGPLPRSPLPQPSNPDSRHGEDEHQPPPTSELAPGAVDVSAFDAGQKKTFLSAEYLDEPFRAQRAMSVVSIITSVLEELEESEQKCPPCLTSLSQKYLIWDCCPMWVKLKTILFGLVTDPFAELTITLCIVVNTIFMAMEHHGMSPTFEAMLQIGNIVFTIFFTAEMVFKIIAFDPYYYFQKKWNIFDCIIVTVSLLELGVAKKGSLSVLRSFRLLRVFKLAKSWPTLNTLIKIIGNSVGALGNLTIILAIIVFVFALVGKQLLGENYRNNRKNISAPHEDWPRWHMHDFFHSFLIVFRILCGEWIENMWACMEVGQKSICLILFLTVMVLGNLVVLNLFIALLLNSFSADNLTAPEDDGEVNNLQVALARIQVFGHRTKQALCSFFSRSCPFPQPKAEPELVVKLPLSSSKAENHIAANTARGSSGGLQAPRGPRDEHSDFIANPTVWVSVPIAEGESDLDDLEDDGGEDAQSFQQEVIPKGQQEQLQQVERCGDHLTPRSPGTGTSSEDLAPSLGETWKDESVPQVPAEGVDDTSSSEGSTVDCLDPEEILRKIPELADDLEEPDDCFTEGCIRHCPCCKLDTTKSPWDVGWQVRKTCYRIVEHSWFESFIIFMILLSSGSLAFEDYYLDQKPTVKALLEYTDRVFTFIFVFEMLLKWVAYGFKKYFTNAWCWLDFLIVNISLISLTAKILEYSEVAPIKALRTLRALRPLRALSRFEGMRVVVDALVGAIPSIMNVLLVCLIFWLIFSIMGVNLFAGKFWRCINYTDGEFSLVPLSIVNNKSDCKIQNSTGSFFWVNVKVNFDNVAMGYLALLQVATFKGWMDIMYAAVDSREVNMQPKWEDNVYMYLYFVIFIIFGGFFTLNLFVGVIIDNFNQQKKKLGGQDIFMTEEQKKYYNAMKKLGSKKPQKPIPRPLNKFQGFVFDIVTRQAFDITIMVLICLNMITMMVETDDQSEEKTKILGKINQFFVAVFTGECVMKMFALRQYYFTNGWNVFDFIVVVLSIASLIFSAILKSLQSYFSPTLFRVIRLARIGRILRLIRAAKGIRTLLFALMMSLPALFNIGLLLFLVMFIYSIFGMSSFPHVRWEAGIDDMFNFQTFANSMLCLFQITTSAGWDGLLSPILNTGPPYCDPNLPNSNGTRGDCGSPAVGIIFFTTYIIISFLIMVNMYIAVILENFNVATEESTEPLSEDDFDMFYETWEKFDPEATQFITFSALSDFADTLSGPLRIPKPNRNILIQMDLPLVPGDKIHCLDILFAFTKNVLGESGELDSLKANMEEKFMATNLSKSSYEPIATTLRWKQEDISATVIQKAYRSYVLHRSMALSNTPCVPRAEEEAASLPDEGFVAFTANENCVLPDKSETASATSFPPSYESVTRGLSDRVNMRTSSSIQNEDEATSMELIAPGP

`Cc1c(-c2cnn(C)c2)cnc(N2CCCC(F)(F)CC2)c1C(=O)Nc1cccc([S@@](C)(=O)=NC(=O)[C@H](C)O)c1` [Example 231, 2-(4,4-difluoroazepan-1-yl)-N-(3-((R)-N-((S)-2-hydroxypropanoyl)-S-methylsulfonimidoyl)phenyl)-4-methyl-5-(1-methyl-1H-pyrazol-4-yl)nicotinamide]: the pIC50 is, setting by setting: under setting [1], 7.30 to 8.30; under setting [2], 7.30 to 8.30.

On to `Cc1c(Cl)cnc(N2CCCC(F)(F)CC2)c1C(=O)Nc1cccc(S(C)(=N)=O)c1` (stereo not drawn) [Example 95, 5-chloro-2-(4,4-difluoroazepan-1-yl)-4-methyl-N-(3-(S-methylsulfonimidoyl)phenyl)nicotinamide], for which the pIC50 by setting is: under setting [1], not below 8.30; under setting [2], not below 8.30.

In the case of `Cc1nc(N2CCCC(F)(F)CC2)c(C(=O)Nc2cccc([S@](C)(=N)=O)c2)cc1Cl` [Example 16, (R)-5-chloro-2-(4,4-difluoroazepan-1-yl)-6-methyl-N-(3-(S-methylsulfonimidoyl)phenyl)nicotinamide], the pIC50 under setting [1] is not below 8.30 and the pIC50 under setting [2] was not below 8.30.

Regarding `CNCCN=[S@](C)(=O)c1cccc(NC(=O)c2c(N3CCCC(F)(F)CC3)ncc(Br)c2C)c1` [Example 211, (R)-5-bromo-2-(4,4-difluoroazepan-1-yl)-4-methyl-N-(3-(S-methyl-N-(2-(methylamino)ethyl)sulfonimidoyl)phenyl)nicotinamide 2,2,2-trifluoroacetate], the pIC50 is not below 8.30 under setting [1] and not below 8.30 under setting [2].

Consider `Cc1c(C(F)(F)F)nnc(N2CCCC(F)(F)CC2)c1C(=O)Nc1ccnc(S(=N)(N)=O)c1` (stereo not drawn) [Example 119, 3-(4,4-difluoroazepan-1-yl)-5-methyl-N-(2-sulfamidimidoylpyridin-4-yl)-6-(trifluoromethyl)pyridazine-4-carboxamide], for which the pIC50 by setting is: under setting [1], 7.30 to 8.30; under setting [2], 7.30 to 8.30.

As to `Cc1c(C#N)c(C(F)(F)F)nc(N2CCCC(F)(F)CC2)c1C(=O)Nc1cccc([S@@](C)(=O)=NCCN)c1` [Example 196, (R)-N-(3-(N-(2-aminoethyl)-S-methylsulfonimidoyl)phenyl)-5-cyano-2-(4,4-difluoroazepan-1-yl)-4-methyl-6-(trifluoromethyl)nicotinamide], the pIC50 under setting [1] is not below 8.30 and the negative-log IC50 (pIC50) under setting [2] was not below 8.30.

Take `Cc1c(-c2ccccc2F)cnc(N2CCCC(F)(F)CC2)c1C(=O)Nc1cccc(S(C)(=N)=O)c1` (stereo not drawn) [Example 92, 2-(4,4-difluoroazepan-1-yl)-5-(2-fluorophenyl)-4-methyl-N-(3-(S-methylsulfonimidoyl)phenyl)nicotinamide]: the pIC50 is not below 8.30 under setting [1] and not below 8.30 under setting [2].

Turning to `Cc1c(-c2cnn(C)c2)cnc(N2CCCC(F)(F)CC2)c1C(=O)Nc1cccc([S@@](C)(=O)=NC(=O)C2(N)CC2)c1` [Example 53, (R)-N-(3-(N-(1-aminocyclopropane-1-carbonyl)-S-methylsulfonimidoyl)phenyl)-2-(4,4-difluoroazepan-1-yl)-4-methyl-5-(1-methyl-1H-pyrazol-4-yl)nicotinamide formate], the pIC50 under setting [1] is 7.30 to 8.30 and the pIC50 under setting [2] was 7.30 to 8.30.

As for `Cc1c(N2CC3(COC3)C2)cnc(N2CCCC(F)(F)CC2)c1C(=O)Nc1cccc([S@@](C)(=N)=O)c1` [Example 90, (S)-2-(4,4-difluoroazepan-1-yl)-4-methyl-N-(3-(S-methylsulfonimidoyl)phenyl)-5-(2-oxa-6-azaspiro[3.3]heptan-6-yl)nicotinamide], the pIC50 was 6.70 to 7.00 under setting [1] and 6.70 to 7.00 under setting [2].

For the molecule `Cc1c(C(F)(F)F)cnc(N2CCCC(F)(F)CC2)c1C(=O)Nc1cccc([S@@](C)(=O)=NC(=O)CO)c1` [Example 195, (R)-2-(4,4-difluoroazepan-1-yl)-N-(3-(N-(2-hydroxyacetyl)-S-methylsulfonimidoyl)phenyl)-4-methyl-5-(trifluoromethyl)nicotinamide], the pIC50 is, setting by setting: under setting [1], not below 8.30; under setting [2], not below 8.30.

Turning to `Cc1c(C(F)(F)F)nnc(N2CCCC(F)(F)CC2)c1C(=O)NC12CC(C(N)=O)(C1)C2` [Example 128, N-(3-carbamoylbicyclo[1.1.1]pentan-1-yl)-3-(4,4-difluoroazepan-1-yl)-5-methyl-6-(trifluoromethyl)pyridazine-4-carboxamide], the pIC50 runs as follows: under setting [1], less than 6.70; under setting [2], less than 6.70.

`Cc1nc(C(F)(F)F)nc(N2CCCC(F)(F)CC2)c1C(=O)Nc1cccc([S@@](C)(=N)=O)c1` [Example 143, (S)-4-(4,4-difluoroazepan-1-yl)-6-methyl-N-(3-(S-methylsulfonimidoyl)phenyl)-2-(trifluoromethyl)pyrimidine-5-carboxamide]: the pIC50 was 7.00 to 7.30 under setting [1] and 7.00 to 7.30 under setting [2].

On to `Cc1c(-c2ccccc2)nnc(N2CCCC(F)(F)CC2)c1C(=O)Nc1cccc(S(C)(=N)=O)c1` (stereo not drawn) [Example 20, 3-(4,4-difluoroazepan-1-yl)-5-methyl-N-(3-(S-methylsulfonimidoyl)phenyl)-6-phenylpyridazine-4-carboxamide], for which the pIC50 reads like this: under setting [1], 7.00 to 7.30; under setting [2], 7.00 to 7.30.

Turning to `Cc1c(-c2cnn(C)c2)cnc(N2CCCC(F)(F)CC2)c1C(=O)Nc1cccc([S@@](C)(=O)=NCCN)c1` [Example 210, (R)-N-(3-(N-(2-aminoethyl)-S-methylsulfonimidoyl)phenyl)-2-(4,4-difluoroazepan-1-yl)-4-methyl-5-(1-methyl-1H-pyrazol-4-yl)nicotinamide 2,2,2-trifluoroacetate], the negative-log IC50 (pIC50) reads like this: under setting [1], 7.30 to 8.30; under setting [2], 7.30 to 8.30.

Take `Cc1c(-c2ccc(C#N)cc2)cnc(N2CCCC(F)(F)CC2)c1C(=O)Nc1cccc([S@@](C)(=O)=NC(=O)C(C)(C)N)c1` [Example 55, (R)-N-(3-(N-(2-amino-2-methylpropanoyl)-S-methylsulfonimidoyl)phenyl)-5-(4-cyanophenyl)-2-(4,4-difluoroazepan-1-yl)-4-methylnicotinamide]: the pIC50 runs as follows: under setting [1], not below 8.30; under setting [2], not below 8.30.

In the case of `Cc1c(C#N)c(C(F)(F)F)nc(N2CCCC(F)(F)CC2)c1C(=O)Nc1cccc([S@@](C)(=O)=NC(=O)C2CNC2)c1` [Example 57, (R)-N-(3-(N-(azetidine-3-carbonyl)-S-methylsulfonimidoyl)phenyl)-5-cyano-2-(4,4-difluoroazepan-1-yl)-4-methyl-6-(trifluoromethyl)nicotinamide formate], the pIC50 is, setting by setting: under setting [1], not below 8.30; under setting [2], not below 8.30.

Take `Cc1c(N2CC3(COC3)C2)nnc(N2CCCC(F)(F)CC2)c1C(=O)Nc1cccc([S@](C)(=N)=O)c1` [Example 140, (R)-3-(4,4-difluoroazepan-1-yl)-5-methyl-N-(3-(S-methylsulfonimidoyl)phenyl)-6-(2-oxa-6-azaspiro[3.3]heptan-6-yl)pyridazine-4-carboxamide]: the pIC50 is less than 6.70 under setting [1] and less than 6.70 under setting [2].

With `Cc1c(-c2ccc(F)cn2)cnc(N2CCCC(F)(F)CC2)c1C(=O)Nc1cccc(S(C)(=N)=O)c1` (stereo not drawn) [Example 112, 6(4,4-difluoroazepan-1-yl)-5-fluoro-4methyl-N-(3-(S-methylsulfonimidoyl)phenyl)-[2,3bipyridine]-5carboxamide], the pIC50 was 7.00 to 7.30 under setting [1] and 7.00 to 7.30 under setting [2].
